Source: patent publication US8252807B2, “Methods of inhibiting the interaction between S100 and the receptor for advanced glycation end-products” (Board of Regents, The University of Texas System, priority 2007, dated 2012)
Values joined by “and” are separate entries in the source; they are usually repeats but may differ in a detail not shown here. Equal entries are not always repeated.

Columns and labels:
BxPC-3 cells = assay: Flow cytometry to measure apoptosis in BxPC-3 cells; assay type: cell-based; settings: 48 hours
Procedure: BxPC-3 cells were treated with cromolyn (10 μM) with (+) or without (−) gemcitabine (10 μM), and apoptosis was analyzed after 48 hours by flow cytometry. *, P<0.001 versus control, #, P=0.001 versus gemcitabine. Means and 95% confidence intervals of three independent experiments performed in triplicate are shown. Two-tailed two-sample (unpaired) Student's t-tests were used to determine P values. Standard propidium iodide (PI) staining by the hypotonic lysis method was used for apoptosis studies. Apoptosis was induced in 1.0×10^6 BxPC-3 cells by treatment with gemcitabine (10 μM), with or without cromolyn. After 48 hours the cells were detached from culture dishes by incubation in 0.05% trypsin-EDTA, washed once with cold PBS, and then incubated for 30 minutes in 500 μL of hypotonic solution (0.1% sodium citrate, 0.1% Triton X-100, 100 μg/mL RNAse, and 50 μg/mL PI), and analyzed by flow cytometry (EPICS XL, Beckman Coulter Inc, Fullerton, Calif.). Cells undergoing apoptosis that had lost part of their DNA were identified as the population of cells with sub-G1 DNA content. These assays were performed three times.

BxPC-3 orthotopic tumors = assay: Tumor growth and metastasis in scid mice, BxPC-3 orthotopic; assay type: in vivo; settings: for lung metastasis, mean: control mean=5.5×10^8; for tumor burden (primary tumor volume by bioluminescence), mean: end of six weeks, cromolyn 5 mg per kg daily i.p., gemcitabine 125 mg per kg bi-weekly i.p., control mean=1.6×10^9
Procedure: BxPC-3 cells stably expressing the firefly luciferase gene were injected orthotopically into 4 week old male CB 17 scid mice. […] Mice were divided into four groups of five mice each with an equivalent mean tumor size between groups. […] One group was treated with water (control), one group received gemcitabine bi-weekly (125 mg kg body weight bi-weekly by intraperitoneal injection), one group was administered cromolyn daily (5 mg per kg body weight daily by intraperitoneal injection), and the final group was given the combination of daily cromolyn and bi-weekly gemcitabine. All groups were treated for six weeks. Bioluminescent imaging was done weekly to assess tumor growth. […] Means and 95% confidence intervals are shown. (n=20). Two-tailed two-sample (unpaired) Student's t-tests were used to determine P values. The anti-tumorigenic capability of the drug cromolyn was assessed in 4-week-old male CB 17 scid mice (n=20) carrying orthopic tumors of BxPC-3, MPanc96, and Panc-1 cells stably expressing a Lenti-luc reporter. All mouse experiments were reviewed and approved by the Institutional Animal Care and Use Committee of UT MD Anderson Cancer Center. All mice were maintained in a sterile environment. Cages, bedding, food, and water were all autoclaved. All mice were maintained on a daily 12-hour light/12-hour dark cycle, according to the institutional animal welfare guidelines. BxPC-3, MPanc96, and Panc-1 cells carrying the Lenti-luc reporter gene were grown to 80% confluence, harvested by incubation with trypsin-EDTA, washed twice in PBS, and resuspended to a final concentration of 4.0×10^6 cells/mL. Each mouse (n=20 mice per cell line) was injected (into the pancreas) with cell suspensions (50 μL). […] This initial tumor volume was used to divide the mice into four groups of five mice each, such that the mean tumor size was equal between groups (FIGS. 4A, 5A, and 6A). To allow enough time to observe differences among treatment groups, the mice were followed for the next 5 weeks. One group of mice was then treated biweekly with a sub-maximal concentration of gemcitabine (125 mg per kg body weight by i.p. injection). A second group was treated with a daily injection of cromolyn (5 mg per kg body weight by i.p. injection). A third group was treated with both bi-weekly gemcitabine and daily cromolyn. The control group was treated daily with vehicle. Treatments were continued for 5 weeks, and the effects on the tumor burden and metastasis were analyzed by weekly bioluminescence imaging (FIGS. 4B, 5B, and 6B). At the end of the experiment the mice were anesthetized with 1.5% isofluorane/air mixture and killed by cervical dislocation. […] Before imaging, mice were placed in an acrylic chamber, anesthetized with 1.5% isofluorane/air mixture, and injected i.p. with 15 mg/mL of luciferin potassium salt in PBS at a dose of 150 mg per kg body weight. A digital grey scale image of each mouse was acquired, followed by acquisition and overlay of a pseudocolor image representing the spatial distribution of detected photons emerging from active luciferase within the mouse. Tumor volume was quantified as the sum of all detected photons within the region of the tumor per second. At the end of experiment, the mice were killed, and tumors were surgically removed and weighed. After the primary tumors were removed, cancer cell dissemination and metastasis was visualized using IVIS imaging, and metastatic colonies were counted. Subsequently, tissues were fixed with formaldehyde, and histology was used to verify the accuracy of the bioluminescence data.

Row | SMILES | effect on BxPC-3 cell apoptosis, cromolyn alone (BxPC-3 cells; cromolyn 10 μM) | lung metastasis, difference versus control (BxPC-3 orthotopic tumors; BxPC-3) | tumor burden, difference versus control (BxPC-3 orthotopic tumors; BxPC-3) | lung metastasis, mean (BxPC-3 orthotopic tumors; BxPC-3) | tumor burden (primary tumor volume by bioluminescence), mean (BxPC-3 orthotopic tumors; BxPC-3) | effect on body weight (BxPC-3 orthotopic tumors; BxPC-3 model, up to 6 weeks) | apoptotic BxPC-3 cells, mean (BxPC-3 cells; gemcitabine 10 μM, cromolyn 10 μM, control mean=3.7%) | apoptotic BxPC-3 cells, difference versus control (BxPC-3 cells; gemcitabine 10 μM) [%] | effect on liver metastasis (BxPC-3 orthotopic tumors; BxPC-3, versus control) | effect on lung metastasis (BxPC-3 orthotopic tumors; BxPC-3, versus control) | body weight, difference versus control (BxPC-3 orthotopic tumors; BxPC-3 model) [g] | body weight at the end of the experiment, mean (BxPC-3 orthotopic tumors; BxPC-3 model, control mean=31.1) [g]
1 | O=C(O)c1cc(=O)c2c(OCC(O)COc3cccc4oc(C(=O)O)cc(=O)c34)cccc2o1 [cromolyn, disodium 1,3-bis[(2′-carboxylatochromon-5′-yl)oxy]-2-hydroxypropane] | no statistically significant effect | 3.9×10^8 photons/sec | 1.2×10^9 photons/sec | 1.6×10^8 photons/sec | 4.4×10^8 photons/sec | no effect on body weight |  |  |  |  |  | 
2 | Nc1ccn([C@@H]2O[C@H](CO)[C@@H](O)C2(F)F)c(=O)n1 [gemcitabine] |  |  | 6.8×10^8 photons/sec | 3.9×10^8 photons/sec | 9.2×10^8 photons/sec |  | 31.0% and 30.8% | 27.3 | did not reduce metastasis | did not reduce metastasis | 3.9 | 27.2
